The values that follow come from US11912693B2, “Compounds for modulating S1P1 activity and methods of using the same” (TREVENA, INC., priority 2017, dated 2024).

Experiment [1] deals with T1, human sphingosine-1-phosphate receptor 1 (S1P1) (Homo sapiens (Human), UniProt P21453). Kind of experiment: Inhibition of cAMP production (HTRF cAMP HiRange), S1P1 CHO-K1 cells. Format: cell-based. The note with it: for Emax: CHO-K1, efficacy (SPAN) normalized to fingolimod, read-out: hS1P1 cAMP SPAN; for hS1P1 cAMP pEC50: inhibition of cAMP production, S1P1 CHO-K1 cells. The method, boiled down: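 CHO-K1 cells stably co-expressing human S1P1 (C-terminal Prolink tag) and EA-β-arrestin2 were grown in AssayComplete Media 6 at 37° C. and 5% CO2, plated, and incubated overnight. Agonist-driven inhibition of intracellular cAMP was read by TR-FRET with the HTRF cAMP HiRange kit on a PheraStar reader. Potency is pEC50, and efficacy (SPAN) is normalized to fingolimod.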
(cAMP levels reflect the balance of adenylyl cyclase and phosphodiesterase activity.)
Target sequence in this assay (P21453 whole entry, looked up): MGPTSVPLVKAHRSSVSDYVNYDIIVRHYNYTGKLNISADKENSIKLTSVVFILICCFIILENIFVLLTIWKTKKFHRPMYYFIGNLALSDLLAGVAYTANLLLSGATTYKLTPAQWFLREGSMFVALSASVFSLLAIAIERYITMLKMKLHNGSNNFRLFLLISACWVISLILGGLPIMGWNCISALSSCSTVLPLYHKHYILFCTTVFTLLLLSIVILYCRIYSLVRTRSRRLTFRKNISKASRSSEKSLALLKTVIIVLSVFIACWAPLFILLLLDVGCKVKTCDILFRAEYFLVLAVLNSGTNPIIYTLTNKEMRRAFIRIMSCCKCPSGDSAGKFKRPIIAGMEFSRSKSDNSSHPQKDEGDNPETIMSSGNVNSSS

In experiment [2] the target is T1, human sphingosine-1-phosphate receptor 1 (S1P1). Kind of experiment: β-Arrestin2 recruitment assay (PathHunter), S1P1 CHO-K1 cells. Format: cell-based. The following applies: for Emax: CHO-K1, efficacy (SPAN) normalized to fingolimod, read-out: hS1P1 B-arrestin2 SPAN; for hS1P1 B-arrestin2 pEC50: β-arrestin2 recruitment, S1P1 CHO-K1 cells. The procedure, abridged: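 Enzyme-fragment complementation read-out: agonist-driven β-arrestin2 binding to ProLink-tagged human S1P1 in stable CHO-K1 cells restores β-galactosidase, measured 1 h at room temperature after a 60 min 37° C. compound incubation. Potency as pEC50, efficacy relative to fingolimod (SPAN).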
Target sequence in this assay (P21453 whole entry, looked up): as above
Target sequence in this assay (P32121 whole entry partner, looked up): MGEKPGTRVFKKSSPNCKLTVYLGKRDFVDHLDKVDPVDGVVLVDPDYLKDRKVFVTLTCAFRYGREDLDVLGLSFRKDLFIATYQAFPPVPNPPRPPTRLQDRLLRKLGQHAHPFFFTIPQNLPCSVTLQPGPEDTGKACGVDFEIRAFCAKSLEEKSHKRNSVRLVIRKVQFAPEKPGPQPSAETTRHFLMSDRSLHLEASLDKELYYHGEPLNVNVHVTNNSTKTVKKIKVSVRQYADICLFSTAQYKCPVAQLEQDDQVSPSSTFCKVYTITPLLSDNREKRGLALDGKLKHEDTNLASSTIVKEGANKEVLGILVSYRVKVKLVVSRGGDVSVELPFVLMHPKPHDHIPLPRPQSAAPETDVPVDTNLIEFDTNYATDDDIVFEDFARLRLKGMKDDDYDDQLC
(Recruitment of arrestin is a read-out of receptor activation apart from second messengers.)

Regarding `CC(C)Cn1nnc2cc(-c3nc4c(Br)cccc4o3)ccc21` [Compound 461, 4-bromo-2-(1-isobutyl-1H-benzo[d][1,2,3]triazol-5-yl)benzo[d]oxazole], in experiment [1], the Emax is greater than 75% and the “hS1P1 cAMP pEC50” value is reported as less than 6.5. Further, in experiment [2], the Emax was greater than 75% and the “hS1P1 B-arrestin2 pEC50” value is reported as less than 5.
As to `Cc1ccc2nc(-c3ccc4c(c3)nnn4CC(C)C)oc2c1` [Compound 448, 2-(1-isobutyl-1H-benzo[d][1,2,3]triazol-5-yl)-6-methylbenzo[d]oxazole], the “hS1P1 cAMP pEC50” value in experiment [1] is reported as less than 6.5. In addition, the “hS1P1 B-arrestin2 pEC50” value in experiment [2] is listed as less than 5.
The like results for `CCC1(CC)CC(=O)c2cc(-c3nc(-c4ccc(C)nc4)no3)ccc2O1` [Compound 550, 2,2-diethyl-6-(3-(6-methylpyridin-3-yl)-1,2,4-oxadiazol-5-yl)chroman-4-one] were, in that order, less than 6.5 and greater than 5.
The like results for `C=CCNc1ccc(-c2nc(-c3ccc4[nH]c(=O)oc4c3)no2)cc1C#N` [Compound 189, 2-(allylamino)-5-(3-(2-oxo-2,3-dihydrobenzo[d]oxazol-6-yl)-1,2,4-oxadiazol-5-yl)benzonitrile] were, in that order, greater than 6.5 and greater than 5.
The like results for `Cc1ccccc1-c1nc(-c2ccc3c(c2)nnn3C2CCCC2)no1` [Compound 162, 3-(1-cyclopentyl-1H-benzo[d][1,2,3]triazol-5-yl)-5-(o-tolyl)-1,2,4-oxadiazole] were, in that order, less than 6.5 and greater than 5.
`Cc1ccccc1-c1csc(-c2ccc3c(ccn3C(C)C)n2)n1` [Compound 409, 2-(1-isopropylpyrrolo[3,2-b]pyridin-5-yl)-4-(o-tolyl)thiazole]: the “hS1P1 cAMP pEC50” value in experiment [1] is listed as less than 6.5. For the same molecule, in experiment [2], the “hS1P1 B-arrestin2 pEC50” value is less than 5.
For the molecule `COc1ccccc1-c1noc(-c2ccc3c(c2)nnn3C2CC2)n1` [Compound 173, 1-cyclopropyl-5-[3-(2-methoxyphenyl)-1,2,4-oxadiazol-5-yl]-1H-1,2,3-benzotriazole], in experiment [1], the Emax was greater than 75% and the “hS1P1 cAMP pEC50” value is listed as greater than 6.5. Besides, in experiment [2], the Emax was greater than 75% and the “hS1P1 B-arrestin2 pEC50” value is listed as greater than 5.
Turning to `CC(C)n1nnc2cc(-c3noc(-c4cccc(F)c4)n3)ccc21` [Compound 64, 5-(3-fluorophenyl)-3-(1-isopropylbenzotriazol-5-yl)-1,2,4-oxadiazole], the “hS1P1 cAMP pEC50” value in experiment [1] is greater than 6.5. For the same molecule, in experiment [2], the “hS1P1 B-arrestin2 pEC50” value is recorded as less than 5.
The like results for `CC(C)(O)Cn1nnc2cc(-c3nc(-c4ccc5nonc5c4)no3)ccc21` [Compound 590, 1-{5-[3-(2,1,3-benzoxadiazol-5-yl)-1,2,4-oxadiazol-5-yl]-1H-1,2,3-benzotriazol-1-yl}-2-methylpropan-2-ol] were, in that order, less than 6.5 and less than 5.
Consider `CCC1(CC)CC(=O)c2cc(-c3nc(-c4ccnc(C(F)(F)F)c4)no3)ccc2O1` [Compound 314, 2,2-diethyl-6-(3-(2-(trifluoromethyl)pyridin-4-yl)-1,2,4-oxadiazol-5-yl)chroman-4-one], for which, in experiment [1], the Emax was less than 75% and the “hS1P1 cAMP pEC50” value was less than 6.5. In addition, in experiment [2], the Emax is less than 75% and the “hS1P1 B-arrestin2 pEC50” value is on record as less than 5.
As to `CCC1(CC)CC(=O)c2cc(-c3nc(-c4ccc(N)cc4)no3)ccc2O1` [Compound 256, 6-(3-(4-aminophenyl)-1,2,4-oxadiazol-5-yl)-2,2-diethylchroman-4-one], in experiment [1], the Emax was greater than 75% and the “hS1P1 cAMP pEC50” value was greater than 6.5. Further, in experiment [2], the Emax is greater than 75% and the “hS1P1 B-arrestin2 pEC50” value is given as greater than 5.
On to `CC(C)Nc1ccc(-c2nnc(-c3ccc4[nH]ncc4c3)o2)cc1C#N` [Compound 351, 5-[5-(1H-indazol-5-yl)-1,3,4-oxadiazol-2-yl]-2-[(propan-2-yl)amino]benzonitrile], for which, in experiment [1], the Emax was greater than 75% and the “hS1P1 cAMP pEC50” value is given as greater than 6.5. Besides, in experiment [2], the Emax was greater than 75% and the “hS1P1 B-arrestin2 pEC50” value is reported as greater than 5.
